Source: patent US11220504B2, “Pyrrolo[3,2-d] pyrimidine derivatives for the treatment of viral infections and other diseases” (JANSSEN SCIENCES IRELAND UNLIMITED COMPANY, priority 2012, dated 2022)

What was measured:
human TLR7 = molecular target: T1, human TLR7 (Homo sapiens, UniProt Q9NYK1); assay: TLR7 cellular reporter assay (HEK293, NFκB-luc); type: cell-based; conditions: HEK293 cells transfected with CMV-TLR7 and NFκB-luc, 6 hours incubation; lowest effective concentration
T1 construct: expressed in transfected cells; host or cells: HEK293 cells, transient transfection with CMV-TLR7 plasmid and NFκB-luc plasmid
T1 sequence (Q9NYK1 27-1049): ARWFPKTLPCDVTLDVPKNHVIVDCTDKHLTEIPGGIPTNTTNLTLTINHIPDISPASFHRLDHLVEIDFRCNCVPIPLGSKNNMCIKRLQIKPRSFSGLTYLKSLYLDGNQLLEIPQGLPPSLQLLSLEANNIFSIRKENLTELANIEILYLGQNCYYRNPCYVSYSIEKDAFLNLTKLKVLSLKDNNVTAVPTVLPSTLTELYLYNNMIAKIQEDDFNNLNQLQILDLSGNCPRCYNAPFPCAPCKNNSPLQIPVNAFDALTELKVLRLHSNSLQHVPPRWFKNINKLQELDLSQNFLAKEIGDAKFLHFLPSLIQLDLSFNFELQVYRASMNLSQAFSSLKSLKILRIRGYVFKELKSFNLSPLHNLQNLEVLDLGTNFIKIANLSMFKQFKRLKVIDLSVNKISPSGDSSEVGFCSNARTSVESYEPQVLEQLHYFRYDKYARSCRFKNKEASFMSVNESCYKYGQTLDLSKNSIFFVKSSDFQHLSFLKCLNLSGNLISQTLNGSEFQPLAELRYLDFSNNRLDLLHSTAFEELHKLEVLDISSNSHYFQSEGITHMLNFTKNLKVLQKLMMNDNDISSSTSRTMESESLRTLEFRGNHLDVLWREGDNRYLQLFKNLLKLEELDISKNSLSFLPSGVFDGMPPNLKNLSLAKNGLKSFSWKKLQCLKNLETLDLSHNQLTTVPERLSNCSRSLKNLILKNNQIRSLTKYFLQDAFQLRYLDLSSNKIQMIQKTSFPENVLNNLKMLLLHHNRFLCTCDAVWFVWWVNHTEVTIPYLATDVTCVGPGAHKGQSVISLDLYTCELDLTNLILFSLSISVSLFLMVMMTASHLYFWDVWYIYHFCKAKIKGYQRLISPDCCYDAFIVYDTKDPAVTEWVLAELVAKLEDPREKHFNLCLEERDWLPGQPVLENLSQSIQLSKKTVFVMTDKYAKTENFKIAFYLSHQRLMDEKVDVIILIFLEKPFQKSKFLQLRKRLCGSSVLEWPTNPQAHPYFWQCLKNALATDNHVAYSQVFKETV
Outline: (§1)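 HEK293 cells transiently transfected with receptor expression vector plus NFκB-luciferase reporter, exposed to compound (added in 4% DMSO) for 6 hours at 37° C, 5% CO2. Luciferase activity measured by luminescence; dose-response curves from quadruplicate measurements.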

human TLR8 = molecular target: T2, human TLR8 (Homo sapiens, UniProt Q9NR97); assay: TLR8 cellular reporter assay (HEK293, NFκB-luc); type: cell-based; conditions: HEK293 cells transfected with CMV-TLR8 and NFκB-luc, 6 hours incubation; lowest effective concentration
T2 construct: expressed in transfected cells; host or cells: HEK293 cells, transient transfection with TLR8 plasmid and NFκB-luc plasmid
T2 sequence (Q9NR97 27-1041): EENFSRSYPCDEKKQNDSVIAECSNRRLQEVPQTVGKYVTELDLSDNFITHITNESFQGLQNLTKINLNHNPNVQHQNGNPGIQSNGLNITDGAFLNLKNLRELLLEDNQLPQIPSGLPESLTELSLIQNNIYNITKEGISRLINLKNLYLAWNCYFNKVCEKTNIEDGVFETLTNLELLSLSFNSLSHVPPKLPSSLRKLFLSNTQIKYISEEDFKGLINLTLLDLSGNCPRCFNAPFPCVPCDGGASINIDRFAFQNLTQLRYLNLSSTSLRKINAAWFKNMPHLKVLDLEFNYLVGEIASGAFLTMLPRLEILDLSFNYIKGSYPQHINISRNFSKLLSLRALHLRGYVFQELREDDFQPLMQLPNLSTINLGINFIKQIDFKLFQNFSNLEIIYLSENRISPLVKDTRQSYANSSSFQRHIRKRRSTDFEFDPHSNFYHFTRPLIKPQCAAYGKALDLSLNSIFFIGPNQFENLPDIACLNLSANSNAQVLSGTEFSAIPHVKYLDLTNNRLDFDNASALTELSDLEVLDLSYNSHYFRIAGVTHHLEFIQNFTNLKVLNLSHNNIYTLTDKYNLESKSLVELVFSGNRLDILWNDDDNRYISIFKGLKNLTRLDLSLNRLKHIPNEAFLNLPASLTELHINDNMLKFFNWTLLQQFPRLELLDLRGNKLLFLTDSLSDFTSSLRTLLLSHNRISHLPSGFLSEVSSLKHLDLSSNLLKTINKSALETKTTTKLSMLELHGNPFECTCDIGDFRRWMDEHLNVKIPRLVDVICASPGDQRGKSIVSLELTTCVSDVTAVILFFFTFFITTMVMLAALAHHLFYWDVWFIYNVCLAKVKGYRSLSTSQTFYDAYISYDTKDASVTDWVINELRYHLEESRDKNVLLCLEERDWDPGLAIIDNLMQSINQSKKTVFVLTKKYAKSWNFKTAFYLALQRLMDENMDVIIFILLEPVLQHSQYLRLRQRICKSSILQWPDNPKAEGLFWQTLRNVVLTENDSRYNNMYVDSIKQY
Outline: as §1

[1] = tested on: interferon-stimulated responsive elements (ISRE); assay: Activation of ISRE promoter elements by conditioned media from PBMC (HEK-ISREluc); type: cell-based, human; conditions: Homo sapiens; conditioned media from PBMC transferred to HEK-ISREluc cells, 24 hours; lowest effective concentration; read-out: PBMC LEC
Outline: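 Human PBMCs (≥2 donors, RPMI + 10% human AB serum, 2×10^5 cells/well) incubated overnight with compound; supernatant transferred to HEK293 cells stably carrying pISRE-Luc for 24 h, then luciferase read. LEC = compound concentration on PBMCs giving luciferase signal at least two-fold above assay SD; recombinant IFN-α-2a standard.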

TLR7 LEC (human TLR7)	TLR8 LEC (human TLR8)	Compound	minimal effective concentration [1]
0.28 µM	>25 µM	CCCCNc1nc(N)nc2ccn(Cc3cccs3)c12 [Compound 73]	0.13 µM
6.94 µM	22 µM	COC[C@H](C)Nc1nc(N)nc2ccn(Cc3ccccn3)c12 [Compound 211]	0.47 µM
